Source: patent US8987267B2, “2-substituted-8-alkyl-7-OXO-7,8-dihydropyrido[2,3-D]pyrimidine-6-carbonitriles and uses thereof in treating proliferative disorders” (Temple University—of the Commonwealth System of Higher …, priority 2010, dated 2015)

Legend:
[1] = biological target: PKCnu/PRK D3 (Homo sapiens, UniProt O94806); assay: Kinase inhibition panel; type: biochemical; settings: 10 μM ATP
[2] = biological target: ARK5 (Homo sapiens, UniProt O60285); assay: Kinase inhibition panel; type: biochemical; settings: 10 μM ATP
[3] = tested on: MDA-MB-468; assay: Cytotoxicity assay, viable cell count; type: cell-based; settings: Homo sapiens, MDA-MB-468, 96 h
Method: (§1) Cells (1×10^5) were plated into 6-well dishes and 24 h later 8-cyclopentyl-2-((4-(4-methylpiperazin-1-yl)phenyl)amino)-7-oxo-7,8-dihydropyrido[2,3-d]pyrimidine-6-carbonitrile (12) was added at five different concentrations over a 2 log dilution (1-100 μM). The total number of viable cells was determined after 96 h of continuous treatment by staining with trypan blue and counting the number of non-staining cells (viable) remaining in each well using a hemacytometer. The percentage of viable cells remaining was calculated as follows: # viable cells (compound treated)/# viable cells (DMSO treated)*100.

[4] = tested on: DU145; assay: Cytotoxicity assay, viable cell count; type: cell-based; settings: Homo sapiens, DU-145; DU145, PROSTATE; 96 h continuous treatment, trypan blue
Method: as §1

[5] = tested on: Z138C; assay: Cytotoxicity assay, viable cell count; type: cell-based; settings: MCL, 96 h continuous treatment, trypan blue
Method: as §1

[6] = tested on: K562; assay: Cytotoxicity assay, viable cell count; type: cell-based; settings: Homo sapiens; K562, CML; 96 h continuous treatment, trypan blue
Method: as §1

[7] = tested on: HCT-15; assay: Cytotoxicity assay, viable cell count; type: cell-based; settings: Homo sapiens; HCT-15, Colon (MDR elevated); 96 h continuous treatment, trypan blue
Method: as §1

[8] = tested on: SK-OV-3; assay: Cytotoxicity assay, viable cell count; type: cell-based; settings: Homo sapiens; SK-OV-3, Ovarian; 96 h continuous treatment, trypan blue
Method: as §1

[9] = tested on: SNU-449; assay: Cytotoxicity assay, viable cell count; type: cell-based; settings: Homo sapiens; SNU-449, Liver; 96 h continuous treatment, trypan blue
Method: as §1

[10] = tested on: SNU-475; assay: Cytotoxicity assay, viable cell count; type: cell-based; settings: Homo sapiens; SNU-475, Hepatocellular carcinoma; 96 h continuous treatment, trypan blue
Method: as §1

[11] = tested on: A549; assay: Cytotoxicity assay, viable cell count; type: cell-based; settings: Homo sapiens; A549, NSCLC; 96 h continuous treatment, trypan blue
Method: as §1

[12] = tested on: N87; assay: Cytotoxicity assay, viable cell count; type: cell-based; settings: N87, Gastric(ErbB2+); 96 h continuous treatment, trypan blue
Method: as §1

[13] = tested on: SW480; assay: Cytotoxicity assay, viable cell count; type: cell-based; settings: Homo sapiens; SW480, COLO-RECTAL; 96 h continuous treatment, trypan blue
Method: as §1

[14] = tested on: GRANTA-519; assay: Cytotoxicity assay, viable cell count; type: cell-based; settings: Homo sapiens; GRANTA-519, MCL; 96 h continuous treatment, trypan blue
Method: as §1

[15] = tested on: BT474; assay: Cytotoxicity assay, viable cell count; type: cell-based; settings: Homo sapiens, BT-474; BT474, ErbB2 + Breast; 96 h continuous treatment, trypan blue
Method: as §1

[16] = tested on: MCF-7; assay: Cytotoxicity assay, viable cell count; type: cell-based; settings: Homo sapiens, MCF7; MCF-7, ER + Breast; 96 h continuous treatment, trypan blue
Method: as §1

[17] = tested on: HELA; assay: Cytotoxicity assay, viable cell count; type: cell-based; settings: Homo sapiens, Cervical, 96 h continuous treatment, trypan blue
Method: as §1

[18] = tested on: U87; assay: Cytotoxicity assay, viable cell count; type: cell-based; settings: Homo sapiens, U-87 MG; U87, Glioblastoma; 96 h continuous treatment, trypan blue
Method: as §1

[19] = tested on: JURKAT; assay: Cytotoxicity assay, viable cell count; type: cell-based; settings: Homo sapiens, T-Cell Lymphoma, 96 h continuous treatment, trypan blue
Method: as §1

[20] = tested on: SNU-398; assay: Cytotoxicity assay, viable cell count; type: cell-based; settings: Homo sapiens; SNU-398, Liver; 96 h continuous treatment, trypan blue
Method: as §1

[21] = tested on: RAJI; assay: Cytotoxicity assay, viable cell count; type: cell-based; settings: Homo sapiens, B-Cell Lymphoma, 96 h continuous treatment, trypan blue
Method: as §1

[22] = tested on: N417; assay: Cytotoxicity assay, viable cell count; type: cell-based; settings: N417, SCLC; 96 h continuous treatment, trypan blue
Method: as §1

[23] = tested on: BT20; assay: Cytotoxicity assay, viable cell count; type: cell-based; settings: Homo sapiens, BT-20; BT20, Breast; 96 h continuous treatment, trypan blue
Method: as §1

[24] = tested on: MIA-PaCa-2; assay: Cytotoxicity assay, viable cell count; type: cell-based; settings: Homo sapiens; MIA-PaCa-2, Pancreatic; 96 h continuous treatment, trypan blue
Method: as §1

[25] = tested on: DLD-1; assay: Cytotoxicity assay, viable cell count; type: cell-based; settings: Homo sapiens; DLD-1, COLO-RECTAL; 96 h continuous treatment, trypan blue
Method: as §1

[26] = tested on: COLO-205; assay: Cytotoxicity assay, viable cell count; type: cell-based; settings: Homo sapiens; COLO-205, Colon; 96 h continuous treatment, trypan blue
Method: as §1

[27] = tested on: SNU-5; assay: Cytotoxicity assay, viable cell count; type: cell-based; settings: Homo sapiens; SNU-5, Gastric; 96 h continuous treatment, trypan blue
Method: as §1

[28] = tested on: U266; assay: Cytotoxicity assay, viable cell count; type: cell-based; settings: Homo sapiens, U-266; U266, Multiple Myeloma; 96 h continuous treatment, trypan blue
Method: as §1

[29] = tested on: SK-BR-3; assay: Cytotoxicity assay, viable cell count; type: cell-based; settings: Homo sapiens; SK-BR-3, ErbB2 + Breast; 96 h continuous treatment, trypan blue
Method: as §1

[30] = biological target: CDK9/cyclinT1 (Homo sapiens, UniProt P50750); assay: Kinase inhibition panel; type: biochemical; settings: 10 μM ATP
[31] = biological target: FRK/PTK5 (Homo sapiens, UniProt P42685); assay: Kinase inhibition panel; type: biochemical; settings: 10 μM ATP
[32] = biological target: YES/YES1 (Homo sapiens, UniProt P07947); assay: Kinase inhibition panel; type: biochemical; settings: 10 μM ATP
[33] = biological target: ZAK/MLTK (Homo sapiens, UniProt Q9NYL2); assay: Kinase inhibition panel; type: biochemical; settings: 10 μM ATP
[34] = biological target: TAOK1 (Homo sapiens, UniProt Q7L7X3); assay: Kinase inhibition panel; type: biochemical; settings: 10 μM ATP
[35] = biological target: PKCmu (Homo sapiens, UniProt Q15139); assay: Kinase inhibition panel; type: biochemical; settings: 10 μM ATP
PKCmu, sequence (Q15139 whole entry): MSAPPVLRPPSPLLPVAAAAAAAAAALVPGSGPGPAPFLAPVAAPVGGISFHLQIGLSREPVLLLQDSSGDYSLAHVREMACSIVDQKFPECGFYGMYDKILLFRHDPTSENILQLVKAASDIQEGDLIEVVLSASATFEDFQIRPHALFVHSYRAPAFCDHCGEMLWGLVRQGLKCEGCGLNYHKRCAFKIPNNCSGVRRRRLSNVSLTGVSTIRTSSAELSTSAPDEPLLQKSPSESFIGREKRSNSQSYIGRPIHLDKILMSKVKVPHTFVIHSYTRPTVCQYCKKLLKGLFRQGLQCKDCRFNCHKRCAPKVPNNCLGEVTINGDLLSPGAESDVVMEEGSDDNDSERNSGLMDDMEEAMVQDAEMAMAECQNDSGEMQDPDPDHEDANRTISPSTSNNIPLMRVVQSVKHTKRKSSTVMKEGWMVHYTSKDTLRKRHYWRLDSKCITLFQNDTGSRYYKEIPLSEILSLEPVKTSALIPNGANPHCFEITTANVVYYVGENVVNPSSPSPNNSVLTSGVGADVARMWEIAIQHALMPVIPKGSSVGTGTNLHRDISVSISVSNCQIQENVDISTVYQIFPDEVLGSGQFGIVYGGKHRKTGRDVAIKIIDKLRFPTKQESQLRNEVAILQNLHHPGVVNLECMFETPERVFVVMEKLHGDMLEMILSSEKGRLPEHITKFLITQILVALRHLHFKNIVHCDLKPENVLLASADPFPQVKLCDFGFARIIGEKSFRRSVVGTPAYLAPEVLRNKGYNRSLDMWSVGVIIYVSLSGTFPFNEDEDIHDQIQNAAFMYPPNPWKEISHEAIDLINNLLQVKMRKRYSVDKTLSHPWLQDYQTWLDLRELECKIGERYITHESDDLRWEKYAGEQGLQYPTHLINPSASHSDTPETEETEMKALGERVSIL

FRK/PTK5, sequence (P42685 whole entry): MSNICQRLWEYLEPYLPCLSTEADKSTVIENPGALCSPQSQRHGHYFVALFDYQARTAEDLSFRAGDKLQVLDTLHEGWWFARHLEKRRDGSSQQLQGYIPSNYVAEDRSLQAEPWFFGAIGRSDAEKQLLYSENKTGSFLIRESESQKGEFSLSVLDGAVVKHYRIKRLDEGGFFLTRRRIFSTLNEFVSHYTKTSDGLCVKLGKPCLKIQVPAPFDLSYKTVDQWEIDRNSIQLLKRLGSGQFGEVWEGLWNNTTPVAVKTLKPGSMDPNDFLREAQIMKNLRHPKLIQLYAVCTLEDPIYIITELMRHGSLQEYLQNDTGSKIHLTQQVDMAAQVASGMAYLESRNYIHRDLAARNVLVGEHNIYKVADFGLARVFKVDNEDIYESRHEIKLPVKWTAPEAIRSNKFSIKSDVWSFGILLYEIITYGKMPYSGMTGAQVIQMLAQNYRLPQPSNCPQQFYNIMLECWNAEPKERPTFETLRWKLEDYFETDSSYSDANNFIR
TAOK1, sequence (Q7L7X3 whole entry, species assumed): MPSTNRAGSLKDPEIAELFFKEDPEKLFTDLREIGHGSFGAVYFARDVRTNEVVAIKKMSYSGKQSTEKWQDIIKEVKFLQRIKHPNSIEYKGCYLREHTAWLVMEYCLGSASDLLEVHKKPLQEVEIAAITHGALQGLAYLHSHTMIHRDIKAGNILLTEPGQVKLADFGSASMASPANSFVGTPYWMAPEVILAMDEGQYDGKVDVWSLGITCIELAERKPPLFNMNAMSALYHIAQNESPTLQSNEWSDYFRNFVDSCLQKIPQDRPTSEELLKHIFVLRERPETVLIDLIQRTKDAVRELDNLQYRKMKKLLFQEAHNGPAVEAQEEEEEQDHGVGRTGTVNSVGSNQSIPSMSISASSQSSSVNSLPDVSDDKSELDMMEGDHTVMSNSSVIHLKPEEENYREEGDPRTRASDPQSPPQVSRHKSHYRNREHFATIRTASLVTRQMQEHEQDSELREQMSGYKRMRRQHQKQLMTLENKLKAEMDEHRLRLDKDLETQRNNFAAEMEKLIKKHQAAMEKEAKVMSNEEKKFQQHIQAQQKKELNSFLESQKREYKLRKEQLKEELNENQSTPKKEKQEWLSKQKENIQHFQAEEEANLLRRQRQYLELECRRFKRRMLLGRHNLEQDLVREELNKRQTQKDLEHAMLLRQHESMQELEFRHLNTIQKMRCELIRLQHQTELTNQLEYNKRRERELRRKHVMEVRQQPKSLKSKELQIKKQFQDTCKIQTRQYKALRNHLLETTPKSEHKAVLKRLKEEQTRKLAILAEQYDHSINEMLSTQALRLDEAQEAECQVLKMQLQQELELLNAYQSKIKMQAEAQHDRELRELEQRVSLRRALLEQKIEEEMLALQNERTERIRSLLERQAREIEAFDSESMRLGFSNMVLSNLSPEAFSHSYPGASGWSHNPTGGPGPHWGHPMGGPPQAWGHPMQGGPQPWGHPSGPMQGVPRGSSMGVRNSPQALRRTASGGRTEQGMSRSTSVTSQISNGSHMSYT
ZAK/MLTK, sequence (Q9NYL2 whole entry): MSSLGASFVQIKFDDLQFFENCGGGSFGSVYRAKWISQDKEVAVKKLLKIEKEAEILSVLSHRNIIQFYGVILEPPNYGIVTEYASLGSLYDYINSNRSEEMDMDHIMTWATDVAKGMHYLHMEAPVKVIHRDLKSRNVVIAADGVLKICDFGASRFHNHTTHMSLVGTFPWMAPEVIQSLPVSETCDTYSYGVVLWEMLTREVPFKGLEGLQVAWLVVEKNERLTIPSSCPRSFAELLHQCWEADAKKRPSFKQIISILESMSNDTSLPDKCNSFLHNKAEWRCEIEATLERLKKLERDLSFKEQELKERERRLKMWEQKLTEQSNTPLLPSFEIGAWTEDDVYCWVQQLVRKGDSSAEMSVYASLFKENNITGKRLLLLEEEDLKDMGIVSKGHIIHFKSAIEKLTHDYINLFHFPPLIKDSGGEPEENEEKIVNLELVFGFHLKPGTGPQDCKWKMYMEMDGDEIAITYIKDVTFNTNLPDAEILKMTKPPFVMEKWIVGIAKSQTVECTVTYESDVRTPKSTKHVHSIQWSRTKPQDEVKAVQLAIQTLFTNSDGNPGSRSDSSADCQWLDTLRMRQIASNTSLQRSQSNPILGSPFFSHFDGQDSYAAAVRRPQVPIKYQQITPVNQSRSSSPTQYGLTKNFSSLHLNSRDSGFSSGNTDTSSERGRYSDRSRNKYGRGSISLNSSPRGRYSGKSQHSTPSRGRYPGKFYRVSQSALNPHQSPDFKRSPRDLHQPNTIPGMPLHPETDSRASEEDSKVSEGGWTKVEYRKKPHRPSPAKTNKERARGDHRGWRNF
CDK9/cyclinT1, sequence (P50750 whole entry, species assumed): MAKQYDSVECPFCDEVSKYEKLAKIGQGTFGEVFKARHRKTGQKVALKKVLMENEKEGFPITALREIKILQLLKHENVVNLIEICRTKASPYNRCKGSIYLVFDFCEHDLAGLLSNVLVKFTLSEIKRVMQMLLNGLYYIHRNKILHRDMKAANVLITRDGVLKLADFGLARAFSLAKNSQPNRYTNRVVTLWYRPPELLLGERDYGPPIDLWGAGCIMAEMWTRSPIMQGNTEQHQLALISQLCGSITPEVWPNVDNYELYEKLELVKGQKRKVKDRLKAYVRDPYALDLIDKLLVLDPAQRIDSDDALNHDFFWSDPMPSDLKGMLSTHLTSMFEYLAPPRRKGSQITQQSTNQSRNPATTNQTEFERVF
CDK9/cyclinT1, sequence (O60563 whole entry partner, species assumed): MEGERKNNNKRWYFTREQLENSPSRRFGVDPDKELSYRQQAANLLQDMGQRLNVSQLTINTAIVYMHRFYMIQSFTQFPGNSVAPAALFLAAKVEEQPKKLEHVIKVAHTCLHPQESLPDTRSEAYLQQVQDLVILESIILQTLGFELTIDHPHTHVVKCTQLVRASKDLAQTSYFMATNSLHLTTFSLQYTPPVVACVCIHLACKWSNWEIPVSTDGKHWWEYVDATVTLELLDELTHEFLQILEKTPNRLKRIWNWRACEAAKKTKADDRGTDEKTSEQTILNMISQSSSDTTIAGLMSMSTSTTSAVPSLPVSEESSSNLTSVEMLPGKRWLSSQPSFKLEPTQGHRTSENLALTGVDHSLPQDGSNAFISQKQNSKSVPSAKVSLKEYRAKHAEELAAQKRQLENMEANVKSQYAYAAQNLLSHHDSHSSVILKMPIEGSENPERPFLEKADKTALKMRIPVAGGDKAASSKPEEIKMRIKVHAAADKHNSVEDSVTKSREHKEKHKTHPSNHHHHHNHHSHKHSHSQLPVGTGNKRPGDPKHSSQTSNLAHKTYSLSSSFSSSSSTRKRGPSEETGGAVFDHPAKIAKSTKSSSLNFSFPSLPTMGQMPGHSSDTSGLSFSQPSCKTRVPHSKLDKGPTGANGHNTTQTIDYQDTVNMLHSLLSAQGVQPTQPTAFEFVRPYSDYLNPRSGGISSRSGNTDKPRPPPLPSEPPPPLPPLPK
ARK5, sequence (O60285 whole entry, species assumed): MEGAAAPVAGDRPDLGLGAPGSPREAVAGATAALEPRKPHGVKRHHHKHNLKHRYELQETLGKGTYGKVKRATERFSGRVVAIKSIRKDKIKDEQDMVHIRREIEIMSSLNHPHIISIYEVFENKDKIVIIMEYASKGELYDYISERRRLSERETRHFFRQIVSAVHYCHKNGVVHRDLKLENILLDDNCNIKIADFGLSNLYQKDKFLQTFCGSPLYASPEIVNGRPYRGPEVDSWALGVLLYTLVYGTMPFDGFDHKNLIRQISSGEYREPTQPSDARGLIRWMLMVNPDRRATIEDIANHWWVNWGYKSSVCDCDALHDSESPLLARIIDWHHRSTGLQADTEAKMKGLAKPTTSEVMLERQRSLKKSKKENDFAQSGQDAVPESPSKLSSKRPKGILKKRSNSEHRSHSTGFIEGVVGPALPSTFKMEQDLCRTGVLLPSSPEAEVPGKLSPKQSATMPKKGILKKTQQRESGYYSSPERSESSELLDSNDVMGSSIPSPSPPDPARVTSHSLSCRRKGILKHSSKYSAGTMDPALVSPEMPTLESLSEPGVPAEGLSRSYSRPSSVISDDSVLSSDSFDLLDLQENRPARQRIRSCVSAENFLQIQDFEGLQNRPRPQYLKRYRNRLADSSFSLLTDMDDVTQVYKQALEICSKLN

IC50 [1]: 55.8 nM | IC50 [2]: 7.85 nM | IC50 [30]: 85.4 nM | IC50 [31]: 575 nM | IC50 [32]: 38.1 nM | IC50 [33]: 29.5 nM | IC50 [34]: 78.7 nM | IC50 [35]: 142 nM
Structure (SMILES): CN1CCN(c2ccc(Nc3ncc4cc(C#N)c(=O)n(C5CCCC5)c4n3)cc2)CC1 [Compound 12, 8-cyclopentyl-2-((4-(4-methylpiperazin-1-yl)phenyl)amino)-7-oxo-7,8-dihydropyrido[2,3-d]pyrimidine-6-carbonitrile]
GI50 [3]: 1500 nM | GI50 [4]: 750 nM | GI50 [5]: 25 nM | GI50 [6]: 500 nM | GI50 [7]: 400 nM | GI50 [8]: 750 nM | GI50 [9]: 750 nM | GI50 [10]: 300 nM | GI50 [11]: 200 nM | GI50 [12]: 900 nM | GI50 [13]: 100 nM | GI50 [14]: 75 nM | GI50 [15]: 250 nM | GI50 [16]: 150 nM | GI50 [17]: 750 nM | GI50 [18]: 100 nM | GI50 [19]: 150 nM | GI50 [20]: 500 nM | GI50 [21]: 250 nM | GI50 [22]: 250 nM | GI50 [23]: 100 nM | GI50 [24]: 250 nM | GI50 [25]: 100 nM | GI50 [26]: 200 nM | GI50 [27]: 200 nM | GI50 [28]: 200 nM | GI50 [29]: 600 nM
